Results on one molecule are retold here after patent US7276491B2, “Anticoagulant and fibrinolytic therapy using p38 MAP kinase inhibitors” (Boehringer Ingelheim Pharmaceuticals, Inc., priority 2002, dated 2007).

The assay deals with LPS-induced activation of coagulation, fibrinolysis and the vascular endothelium. Put plainly: LPS study: randomized, double-blind, placebo-controlled human endotoxemia experiment. It is filed as in vivo.
Where [1] appears, read: healthy male volunteers, high dose (600 mg oral) 3 h before LPS 4 ng/kg i.v.

Take `Cc1ccc(-n2nc(C(C)(C)C)cc2NC(=O)Nc2ccc(OCCN3CCOCC3)c3ccccc23)cc1` [formula (III), 1-[3-tert-butyl-1-p-tolyl-1H-pyrazol-5-yl]-3-[4-(2-morpholin-4-yl-ethoxy)naphthalen-1-yl]-urea]: under setting [1], the “LPS-elicited increase in plasma levels of sE-selectin (endothelial cell activation)” value is “attenuated” and the “LPS-elicited increase in plasma levels of vWF (endothelial cell activation)” value is on record as “attenuated”. Besides, for the setting “healthy male volunteers, high end dosing (600 mg oral) 3 h before LPS 4 ng/kg i.v., vs placebo”, the “LPS-induced coagulation activation (increase in plasma prothrombin fragment F1+2 concentrations)” value was “inhibited LPS-induced coagulation activation, both delaying and diminishing the increase in plasma F1+2 concentrations”. For the same molecule, the “activation of the fibrinolytic system” value (healthy male volunteers, oral dose 3 h before LPS 4 ng/kg i.v., tPA, PAI-1, PAPc assayed) is “even stronger inhibitory effect”. Besides, the IL-6 concentrations result (subjects treated during low grade endotoxemia (LPS i.v.)) is given as “reduced IL-6 concentrations”.
